We go through twelve compounds from ChEMBL document CHEMBL1150658, “New ent-kaurane diterpenoids with anti-platelet aggregation activity from Annona squamosa” (2002).

Holding throughout (format): functional
Holding throughout (conditions): Oryctolagus cuniculus

A short description of assay [1]: Antiplatelet activity against washed rabbit platelet assessed as inhibition of arachidonic acid-induced platelet aggregation at 200 uM.
Assay [2] can be described thus: Antiplatelet activity against washed rabbit platelet assessed as inhibition of collagen-induced platelet aggregation at 200 uM.
Assay [3] can be described thus: Antiplatelet activity against washed rabbit platelet assessed as inhibition of platelet activating factor-induced platelet aggregation at 200 uM.
Assay [4] in a line: Antiplatelet activity against washed rabbit platelet assessed as inhibition of thrombin-induced platelet aggregation at 200 uM.

Turning to `C[C@@]12CCC[C@@](C)(C(=O)O)[C@H]1CC[C@]13C[C@@H](CO)[C@H](CC[C@H]12)C3`, the inhibition at 200 µM stood at 4.1% in assay [1], 23.8% in assay [2], 7.4% in assay [3] and 2.8% in assay [4].
On to `C[C@@]12CCC[C@@](C)(C(=O)O)[C@H]1CC[C@@]13C[C@@H](CC[C@H]12)[C@](O)(CO)C3`, for which the inhibition at 200 µM in assay [1] was 14.9%; in assay [2] it was 8.6%; in assay [3] it was 14.4%; in assay [4] it was 6.8%.
With `C[C@@]12CCC[C@@](C)(O)[C@H]1CC[C@@]13C[C@@H](CC[C@H]12)[C@@H](C(=O)O)C3`, the inhibition at 200 µM in assay [1] is 4.5%; in assay [2], 30.5%; in assay [3], 13.3%; in assay [4], 2%.
The like results for `C[C@@]12CCC[C@@](C)(C(=O)O)[C@H]1CC[C@@]13C[C@@H](CC[C@H]12)[C@H](C(=O)O)C3` were, in that order, 15.4%, 56.9%, 15.2% and 6%.
Turning to `C[C@@]12CCC[C@@](C)(C(=O)O)[C@H]1CC[C@@]13C[C@H](CC[C@H]12)[C@@](O)(CO)C3`, the inhibition at 200 µM came out at 7.2% in assay [1], 2.3% in assay [2], 8.9% in assay [3] and 0.4% in assay [4].
As for `CC(=O)OC[C@]1(O)C[C@@]23CC[C@H]4[C@@](C)(CCC[C@@]4(C)C(=O)O)[C@@H]2CC[C@H]1C3`, the inhibition at 200 µM in assay [1] is 10.8%; in assay [2], 30.1%; in assay [3] it was 11.1%; in assay [4], 8%.
`C[C@@]12CCC[C@@](C)(C=O)[C@H]1CC[C@@]13C[C@@H](CC[C@H]12)[C@@](O)(CO)C3`: the inhibition at 200 µM in assay [1] worked out at 0.5%; in assay [2], 4.9%; in assay [3], 10.3%; in assay [4], 3.2%.
`C[C@@]12CCC[C@@](C)(C=O)[C@H]1CC[C@@]13C[C@@H](CC[C@H]12)[C@@H](C(=O)O)C3`: the inhibition at 200 µM was 100% in assay [1], 100% in assay [2], 11.8% in assay [3] and 6.8% in assay [4].
As to `C[C@@]12CCC[C@@](C)(C=O)[C@H]1CC[C@@]13C[C@@H](CC[C@H]12)[C@](O)(CO)C3`, the inhibition at 200 µM in assay [1] was 9.6%; in assay [2], 17.6%; in assay [3], 5.5%; in assay [4], 0%.
Take `C[C@@]12CCC[C@@](C)(O)[C@H]1CC[C@@]13C[C@H](CC[C@H]12)[C@](O)(CO)C3` [ANNOSQUAMOSIN B]: the inhibition at 200 µM in assay [1] is 8.7%; in assay [2], 21.1%; in assay [3], 8.5%; in assay [4], 1.6%.
In the case of `CC(=O)O[C@@]1(CO)C[C@@]23CC[C@H]4[C@@](C)(CCC[C@@]4(C)O)[C@@H]2CC[C@@H]1C3` [ANNOSQUAMOSIN D], the inhibition at 200 µM in assay [1] amounted to 4.9%; in assay [2] it was 10.6%; in assay [3], 9.3%; in assay [4] it was 2%.
The like results for `C=C1C[C@@]23CC[C@H]4[C@@](C)(CCC[C@@]4(C)C(=O)O)[C@@H]2CC[C@@H]1C3` [KAURENOIC ACID] were, in that order, 24.8%, 100%, 12.6% and 5.6%.
